Reference: patent publication US7897369B2, “Isoprenoid wax ester synthases, isoprenoid acyl CoA-synthetases, and uses thereof” (Regents of the University of Minnesota, priority 2007, dated 2011)
“Also recorded” adds a separate entry of the source.

Tests used:
[1] = target: T1, WS2 (Marinobacter nauticus, UniProt A3RE51); assay: WS2 kinetics on ethanol and oleoyl-CoA (DTNB); format: biochemical, Marinobacter hydrocarbonoclasticus
Protocol: (§1) […] Assay reactions were pre-incubated at 37° C. for 5 minutes before the reactions were started by the addition of enzyme.

[2] = system: WS1; assay: Kinetic WS assay, spectrophotometric (CoA release, DTNB); format: biochemical, Marinobacter hydrocarbonoclasticus DSM 8798
Protocol: (§2) WS activity was determined by monitoring CoA release using Ellman's reagent [5,5′-dithio-bis(2-nitrobenzoic acid); DTNB] at 412 nm (ε=13,600 M^−1 cm^−1) (Ellman, 1959. Arch. Biochem. Biophys. 82:70-77). Kinetic in vitro assays were performed in triplicate in 125 mM sodium phosphate buffer (pH 7.4) containing 0.1% Tergitol NP-11 detergent, 10 mM MgCl2, 1 mM DNTB, 250 μM palmitoyl-CoA, 1 to 250 μM hexadecanol, and 0.5 μg of WS enzyme. Assay reactions were preincubated at 37° C. for 5 min before the reactions were started by the addition of enzyme. Heat-denatured enzyme (99° C. for 15 min) was used as a negative control.
(§3) Acyl-CoA and fatty/isoprenoid alcohol specificity of WS2 was determined in the same manner as described for the kinetic WS assay with assumed saturating conditions containing both the fatty/isoprenoid alcohol and acyl-CoA substrates at a concentration of 1 mM. Acyl-CoA specificity was measured with hexadecanol as acyl acceptor, whereas palmitoyl-CoA was used as acyl donor to determine alcohol specificity. Isoprenoid WS activity of WS2 was determined with 250 μM HPLC purified phytanoyl-CoA and 250 μM phytol as substrates.
(§4) A spectrophotometric assay was developed to determine the kinetic properties of WS1 and WS2. The concentration of sulfhydryl groups of CoA released during the condensation reaction between fatty/isoprenoid CoA activated acids and alcohols was determined by using Ellman's reagent (DTNB) (Ellman, 1959. Arch. Biochem. Biophys. 82:70-77). The specific activities of WS1, WS2, and Acinetobacter WS/DGAT were measured with palmitoyl-CoA and hexadecanol, palmitoyl-CoA and phytol, and phytanoyl-CoA and phytol. Phytanoyl-CoA for these assays was enzymatically synthesized from phytanic acid and CoA using the above-characterized isoprenoid/acyl-CoA synthetase Acs2.

[3] = target: T1, WS2; assay: as above; format: biochemical, Marinobacter hydrocarbonoclasticus DSM 8798
Protocol: Assay reactions were preincubated at 37° C. for 5 min before the reactions were started by the addition of enzyme. Heat-denatured enzyme (99° C. for 15 min) was used as a negative control.
as §3, with “specificity.” for “specificity. Isoprenoid WS activity of WS2 was determined with 250 μM HPLC purified phytanoyl-CoA and 250 μM phytol as substrates.”
A spectrophotometric assay was developed to determine the kinetic properties of WS1 and WS2. […] The specific activities of WS1, WS2, and Acinetobacter WS/DGAT were measured with palmitoyl-CoA and hexadecanol, palmitoyl-CoA and phytol, and phytanoyl-CoA and phytol. Phytanoyl-CoA for these assays was enzymatically synthesized from phytanic acid and CoA using the above-characterized isoprenoid/acyl-CoA synthetase Acs2.

[4] = target: T2, Acinetobacter WS/DGAT (Acinetobacter baylyi, UniProt Q8GGG1); assay: as above; format: biochemical
T2 construct: His6 (N); made in house
T2 sequence (Q8GGG1 1-458): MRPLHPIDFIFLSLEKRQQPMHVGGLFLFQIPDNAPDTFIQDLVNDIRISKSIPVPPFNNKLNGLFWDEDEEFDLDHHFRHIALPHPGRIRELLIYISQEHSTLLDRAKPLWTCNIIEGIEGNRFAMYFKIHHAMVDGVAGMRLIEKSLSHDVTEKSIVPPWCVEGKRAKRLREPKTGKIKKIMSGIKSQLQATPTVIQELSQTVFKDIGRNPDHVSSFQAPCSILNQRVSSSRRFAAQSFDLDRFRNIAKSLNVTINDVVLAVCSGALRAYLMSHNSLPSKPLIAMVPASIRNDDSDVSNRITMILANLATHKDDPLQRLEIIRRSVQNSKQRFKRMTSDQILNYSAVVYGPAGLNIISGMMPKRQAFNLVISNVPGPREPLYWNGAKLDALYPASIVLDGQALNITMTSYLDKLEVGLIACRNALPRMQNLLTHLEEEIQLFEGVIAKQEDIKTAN
Protocol: as §2, §3, §4

[5] = system: WS1; assay: Coupled enzyme assay, WS substrate profile (TLC); format: biochemical, Marinobacter hydrocarbonoclasticus DSM 8798; settings: coupled reaction; palmitic acid with hexadecanol, phytanic acid with phytol, phytanoyl-CoA with the alcohols named in the value
Protocol: (§5) Stock solutions of various substrates were prepared in 50 mM Tris-HCl buffer (pH 8) containing 1% gum arabic, 12.5 μg bovine serum albumin ml^−1, 0.1% taurocholate, and either 100 mM fatty acid, isoprenoid acid, fatty alcohol, or isoprenoid alcohol. Stock solutions were sonicated to disperse the substrates. Substrate profiles of the three WS were tested using coupled enzyme in vitro reactions in which the CoA synthetases Acs1 and Acs2 are added to synthesize the CoA-activated fatty acid phytanic acid substrates from corresponding acid precursors for the WS reactions. Assays were carried out in 500-μl reactions containing in 50 mM Tris-HCl buffer (pH 8.0), 12.5 μl of each acid, and alcohol substrate stock solution (final concentrations of each substrate of 250 μM), 10 mM MgCl2, 10 mM CoASH, 10 mM ATP, 5 mM TCEP, 0.1 U of inorganic pyrophosphatase, 0.25 μg of Acs1 and Acs2 CoA synthetase, and 0.5 μg of WS to be tested. Assays were incubated at 37° C. overnight before thin-layer chromatography (TLC) analysis of the reaction products.
(§6) In vitro WS assay samples were extracted with 500 μl of chloroformmethanol (1:1 [vol/vol]), and extracts were analyzed by TLC with Whatman normal phase silica gel 60 plates and developed using hexane-diethyl ether-acetic acid (90:10:1 [vol/vol/vol]). TLC plates were stained with either iodine vapor or anisaldehyde solution as described earlier (Jork et al., 1990. Thin-layer chromatography reagents and detection methods, vol. 1a. Physical and chemical detection methods: fundamentals, reagents. VHC, Weinheim, Germany). Palmitoyl palmitate and triolein were used as WE and TAG reference compounds, respectively.

[6] = target: T1, WS2; assay: Coupled enzyme assay, WS substrate profile (TLC); format: biochemical, Marinobacter hydrocarbonoclasticus DSM 8798; settings: coupled reaction; palmitic acid with hexadecanol, phytanic acid with phytol, phytanoyl-CoA with the alcohols named in the value
Protocol: as §5, §6

[7] = substrate: CCCCCCCCCCCCCCCCO; assay: Kinetic WS assay, spectrophotometric (CoA release, DTNB); format: biochemical, Marinobacter hydrocarbonoclasticus DSM 8798; settings: other: saturating palmitoyl-CoA (250 μM), various concentrations of hexadecanol; pH 7.4
[8] = substrate: CCCCCCCC/C=C\CCCCCCCC(=O)SCCNC(=O)CCNC(=O)[C@H](O)C(C)(C)COP(=O)(O)OP(=O)(O)OC[C@H]1O[C@@H](n2cnc3c(N)ncnc32)[C@H](O)[C@@H]1OP(=O)(O)O; assay: WS2 kinetics on ethanol and oleoyl-CoA (DTNB); format: biochemical, Marinobacter hydrocarbonoclasticus; settings: other: steady state; varied substrate 10 μM-250 μM, other substrate (oleoyl-CoA or ethanol) 500 μM; pH 7.2; 37.0 °C
Protocol: as §1

[9] = steady state, varied substrate 10 μM-250 μM, other substrate (oleoyl-CoA or ethanol) 500 μM
[10] = co-substrate hexadecanol (C16), listed as palmitoyl-CoA

CCO [Ethanol]
Kcat of WS2 ([1]; steady state on ethanol and oleoyl-CoA): 32 s⁻¹ | Km [1, 9]: 17 µM | Vmax of WS2 [1, 9]: 1250 μmol (mg/min)^−1

CCCCCCCCCCCCCCCC(=O)SCCNC(=O)CCNC(=O)[C@H](O)C(C)(C)COP(=O)(O)OP(=O)(O)OC[C@H]1O[C@@H](n2cnc3c(N)ncnc32)[C@H](O)[C@@H]1OP(=O)(O)O [Palmitoyl-CoA, palmitoyl-CoA (C16:0)]
Mean sp act ± SD of Marinobacter WS1 ([2]; co-substrate hexadecanol (C16)): 1.338 ± 0.5 mmol/min/mg | Mean sp act ± SD of Marinobacter WS1 [2, 10]: 1.3 mmol/min/mg | Mean sp act ± SD of Marinobacter WS1 ([2]; co-substrate phytol): 0.152 ± 0.011 mmol/min/mg | Mean sp act ± SD of Marinobacter WS2 ([3]; co-substrate hexadecanol (C16)): 61.323 ± 1.79 mmol/min/mg | Mean sp act ± SD of Marinobacter WS2 [3, 10]: 61 mmol/min/mg | Mean sp act ± SD of Marinobacter WS2 ([3]; co-substrate phytol): 28.872 ± 2.13 mmol/min/mg | Acyl-CoA specificity of WS2 ([3]; hexadecanol as acyl acceptor, both substrates 1 mM): clear preference | WS2 more active than WS1 or Acinetobacter WS/DGAT in creating the hybrid WE ([3]; palmitoyl-CoA and phytol as substrates): 20 fold | Mean sp act ± SD of Acinetobacter WS/DGAT ([4]; co-substrate hexadecanol (C16)): 0.389 ± 0.039 mmol/min/mg | Mean sp act ± SD of Acinetobacter WS/DGAT [4, 10]: 0.38 mmol/min/mg | Mean sp act ± SD of Acinetobacter WS/DGAT ([4]; co-substrate phytol): 0.138 ± 0.003 mmol/min/mg

CC(C)CCCC(C)CCCC(C)CCCC(C)CC(=O)SCCNC(=O)CCNC(=O)[C@H](O)C(C)(C)COP(=O)(O)OP(=O)(O)OC[C@H]1O[C@@H](n2cnc3c(N)ncnc32)[C@H](O)[C@@H]1OP(=O)(O)O (stereo partly drawn) [Phytanoyl-CoA]
WE product formation by WS1 (TLC), in words [5]: fatty alcohols were not condensed to phytanoyl-CoA; also recorded: produced isoprenoid WEs from phytanoyl-CoA and the isoprenoid alcohols phytol and farnesol | WE product formation by WS2 (TLC), in words [6]: fatty alcohols were not condensed to phytanoyl-CoA; also recorded: produced isoprenoid WEs from phytanoyl-CoA and the isoprenoid alcohols phytol and farnesol | Mean sp act ± SD of Marinobacter WS2 ([3]; co-substrate phytol): 0.397 ± 0.099 mmol/min/mg | Mean sp act ± SD of Marinobacter WS2 ([3]; co-substrate phytol, listed as phytanoyl-CoA): 0.397 mmol/min/mg

B1: WS2 (Marinobacter nauticus) (protein)
chain: MKRLGTLDASWLAVESEDTPMHVGTLQIFSLPEGAPETFLRDMVTRMKEAGDVAPPWGYKLAWSGFLGRVIAPAWKVDKDIDLDYHVRHSALPRPGGERELGILVSRLHSNPLDFSRPLWECHVIEGLENNRFALYTKMHHSMIDGISGVRLMQRVLTTDPERCNMPPPWTVRPHQRRGAKTDKEASVPAAVSQAMDALKLQADMAPRLWQAGNRLVHSVRHPEDGLTAPFTGPVSVLNHRVTAQRRFATQHYQLDRLKNLAHASGGSLNDIVLYLCGTALRRFLAEQNNLPDTPLTAGIPVNIRPADDEGTGTQISFMIASLATDEADPLNRLQQIKTSTRRAKEHLQKLPKSALTQYTMLLMSPYILQLMSGLGGRMRPVFNVTISNVPGPEGTLYYEGARLEAMYPVSLIAHGGALNITCLSYAGSLNFGFTGCRDTLPSMQKLAVYTGEALDELESLILPPKKRARTRK
WS2 more active in vitro in producing acyl ester products than Acinetobacter WS/DGAT ([3]; in vitro): approximately 150 times | Km [7]: 44 µM | Vmax [7]: 10 mmol/mg/min | kcat [7]: 4,794 s^−1 | Km [8]: 23 µM | kcat/Km [8]: 2.56 × 10^6 (M^−1 s^−1) M^−1 s^−1
